Data from patent publication US20080219977A1, “Combinations Comprising Gemcitabine and Tyrosine Kinase Inhibitors for the Treatment of Pancreatic Cancer” (priority 2005, published 2008).
Marks after values point to notes of the source that are not given here.

What was measured:
[1] = system: L3.6pl human pancreatic cancer cells; assay: Therapy of established L3.6pl human pancreatic carcinoma tumors growing in the pancreas of athymic nude mice (tumor weight); assay type: in vivo; conditions: for Tumor weight (g) Median: pancreatic tumor, AEE788 50 mg/kg oral 3x/week, STI571 50 mg/kg oral daily, gemcitabine 50 mg/kg i.p. twice weekly, 4 weeks, killed day 49, n=10; for effect on tumor growth (in words): L3.6pl implanted in the pancreas of nude mice, each drug 50 mg/kg
Text: Animals and Orthotopic Implantation of Tumor Cells. Male athymic nude mice (NCI-nu) are purchased from the Animal Production Area of the National Cancer Institute Frederick Cancer Research and Development Center (Frederick, Md.). The mice are housed and maintained under specific pathogen-free conditions. The mice are used when they are 8 to 12 weeks old. To produce pancreatic tumors, L3.6pl cells are harvested from subconfluent cultures by a brief exposure to 0.25% trypsin and 0.02% EDTA. Trypsinization is stopped with medium containing 10% FBS, and the cells are washed once in serum-free medium and resuspended in Hanks' balanced salt solution (HBSS). Only suspensions consisting of single cells with greater than 90% viability are used for injection into the pancreas of nude mice as described previously (Hwang et al. in Clin Cancer Res 2003; 9:6534-44). Treatment of Established Human Pancreatic Carcinoma Tumors Growing in the Pancreas of Athymic Nude Mice. Twenty-one days after the intra-pancreatic injection of 0.5×10^6 viable L3.6pl cells in 50 μl HBSS, the pancreatic tumors reach the size of 5-6-mm. […] All mice are treated for 4 weeks and killed on day 49 of the experiment. Necropsy Procedures and Histological Studies. […] Tumors growing in the pancreas are excised and weighed. For immunohistochemical staining procedures, one part of the tumor tissue is fixed in formalin and embedded in paraffin and the other is embedded in OCT compound (Miles, Inc., Elkhart, Ind.), rapidly frozen in liquid nitrogen, and stored at −70° C. Statistical Analysis. Body weight, tumor weight, PCNA-positive cells, mean vessel density (CD31/PECAM-1), and TUNEL-positive cells are compared using the Mann-Whitney U test. Survival analysis is computed by the Kaplan-Meier method and compared by the Log rank test.

[2] = Body weight of nude mice in the L3.6pl therapy study; assay type: in vivo; conditions: nude mice with orthotopic L3.6pl tumors; AEE788 50 mg/kg oral 3x/week, STI571 50 mg/kg oral daily, gemcitabine 50 mg/kg i.p. twice weekly; 4 weeks, killed day 49; n=10
Description: Treatment of Established Human Pancreatic Carcinoma Tumors Growing in the Pancreas of Athymic Nude Mice. Twenty-one days after the intra-pancreatic injection of 0.5×10^6 viable L3.6pl cells in 50 μl HBSS, the pancreatic tumors reach the size of 5-6-mm. […] All mice are treated for 4 weeks and killed on day 49 of the experiment.
Necropsy Procedures and Histological Studies. In the first treatment study, the mice are killed on day 49 after tumor cell injection, weighted, and necropsied. Tumors growing in the pancreas are excised and weighed. For immunohistochemical staining procedures, one part of the tumor tissue is fixed in formalin and embedded in paraffin and the other is embedded in OCT compound (Miles, Inc., Elkhart, Ind.), rapidly frozen in liquid nitrogen, and stored at −70° C.
Statistical Analysis. Body weight, tumor weight, PCNA-positive cells, mean vessel density (CD31/PECAM-1), and TUNEL-positive cells are compared using the Mann-Whitney U test. Survival analysis is computed by the Kaplan-Meier method and compared by the Log rank test.

[3] = target: T1, EGFR (Homo sapiens, UniProt P00533); assay: IHC analysis of phosphorylated EGFR in L3.6pl pancreatic tumors; assay type: in vivo; conditions: IHC of pancreatic tumors from treated mice
T1 construct: Paraffin-embedded pancreatic tumors of mice from all treatment groups are immunostained; from tissue; host or cells: L3.6pl orthotopic pancreatic tumours grown in nude mice
Text: (§1) Immunohistochemical (IHC) Analysis to Detect EGF, VEGF, PDGF-BB, EGFR, VEGFR, PDGFRβ, pEGFR, pVEGFR, pPDGF-R in Pancreatic Tumors. Paraffin-embedded pancreatic tumors of mice from all treatment groups are immunostained to evaluate the expression of EGF, VEGF, PDGF-BB, EGFR, VEGFR, PDGFRβ, phosphorylated (p)EGFR, pVEGFR, and pPDGFRβ. The sections are deparaffinized in xylene, dehydrated with alcohol and rehydrated in PBS. Endogenous peroxidase is blocked with 3% hydrogen peroxide in PBS. Samples are exposed to protein block (5% normal horse serum, 1% normal goat serum in PBS) and incubated overnight at 4° C. with each primary antibody at the appropriate dilution. […] Slides are counterstained with Gill's #3 hematoxylin. Sections stained for immunoperoxidase or hematoxylin and eosin are examined in a microscope equipped with a three-chip-charged coupled device (CCD) color video camera. Digital images are captured using Optimas Image Analysis software (Media Cybernetics, Md.).

[4] = system: VEGFR; assay: IHC analysis of phosphorylated VEGFR in L3.6pl pancreatic tumors; assay type: in vivo, human; conditions: IHC of pancreatic tumors from treated mice
Text: as §1

[5] = target: T2, EGFR (Mus musculus, UniProt Q01279); assay: Double immunofluorescence CD31/pEGFR on tumor-associated endothelial cells; assay type: in vivo, nude mice; conditions: double immunofluorescence with CD31
T2 construct: Frozen sections of pancreatic tumors are mounted on slides and fixed; from tissue; host or cells: tumour-associated endothelial cells in L3.6pl tumours of nude mice

[6] = target: T3, VEGFR (Mus musculus, UniProt P35918); assay: Double immunofluorescence CD31/pVEGFR on tumor-associated endothelial cells; assay type: in vivo, nude mice; conditions: double immunofluorescence with CD31
T3 construct: Frozen sections of pancreatic tumors are mounted on slides and fixed; from tissue; host or cells: tumour-associated endothelial cells in L3.6pl tumours of nude mice

[7] = system: EGF, VEGF, PDGF-BB, EGFR, VEGFR, and PDGFR; assay: IHC expression level of growth factors and receptors in L3.6pl pancreatic tumors; assay type: in vivo, human; conditions: IHC of pancreatic tumors from treated mice
Text: Immunohistochemical (IHC) Analysis to Detect EGF, VEGF, PDGF-BB, EGFR, VEGFR, PDGFRβ, pEGFR, pVEGFR, pPDGF-R in Pancreatic Tumors. Paraffin-embedded pancreatic tumors of mice from all treatment groups are immunostained to evaluate the expression of EGF, VEGF, PDGF-BB, EGFR, VEGFR, PDGFRβ, phosphorylated (p)EGFR, pVEGFR, and pPDGFRβ. The sections are deparaffinized in xylene, dehydrated with alcohol and rehydrated in PBS. Endogenous peroxidase is blocked with 3% hydrogen peroxide in PBS. Samples are exposed to protein block (5% normal horse serum, 1% normal goat serum in PBS) and incubated overnight at 4° C. with each primary antibody at the appropriate dilution. After 1 h incubation at room temperature with peroxidase-conjugated secondary antibody, positive reaction is detected by exposure to stable 3,3′-diaminobenzidine (DAB) (Phoenix Biotechnologies, Huntsville, Ala.). Slides are counterstained with Gill's #3 hematoxylin. Sections stained for immunoperoxidase or hematoxylin and eosin are examined in a microscope equipped with a three-chip-charged coupled device (CCD) color video camera. Digital images are captured using Optimas Image Analysis software (Media Cybernetics, Md.).

[8] = system: L3.6pl human pancreatic cancer cells; assay: Cell proliferation (PCNA) IHC in L3.6pl tumors; assay type: in vivo; conditions: Median ± S.D., positive cells in 10 random 0.159-mm^2 fields at ×100
Description: (§2) IHC Determination of Proliferating Cell Nuclear Antigen (PCNA), CD31/PECAM-1 (Endothelial Cells) and TUNEL (Apoptosis). Paraffin-embedded tissues are used for IHC identification of proliferating cell nuclear antigen (PCNA). Frozen tissues used for identification of CD31/PECAM-1 are sectioned (8-10 μm), mounted on positively charged slides, and air-dried for 30 min. Frozen sections are fixed in cold acetone (5 min), in acetone/chloroform (v/v; 5 min), and again in acetone (5 min), and washed with PBS. IHC procedures are performed as described previously (Hwang et al. in Clin Cancer Res 2003; 9:6534-44). […] Statistical Analysis. Body weight, tumor weight, PCNA-positive cells, mean vessel density (CD31/PECAM-1), and TUNEL-positive cells are compared using the Mann-Whitney U test. Survival analysis is computed by the Kaplan-Meier method and compared by the Log rank test.

[9] = system: L3.6pl human pancreatic cancer cells; assay: Apoptosis (TUNEL) in L3.6pl tumors; assay type: in vivo; conditions: Median ± S.D.; TUNEL-positive cells in 10 random 0.159-mm^2 fields at ×100
Description: Analysis of apoptotic cells is performed by using a commercially available TUNEL kit (Promega) with the following modifications: Samples are fixed and incubated with an equilibration buffer followed by a reaction buffer (containing nucleotide mix and terminal deoxynucleotidyl transferase enzyme). Immunofluorescence microscopy is performed in a Zeiss Axioplan microscope (Carl Zeiss, Inc., Thornwood, N.Y.) equipped with an HBO 100 mercury lamp, narrow bandpass filters to individually select for green, red, and blue fluorescence (Chroma Technology Corp., Brattleboro, Vt.). Images are captured using a cooled CCD Hamamatsu Orca camera (Hamamatsu Corp., Bridgewater, N.J.) and Image Pro Analysis software (Media Cybernetics, Silver Spring, Md.). Photomontages are prepared using Adobe Photoshop software (Adobe Systems, Inc., San Jose, Calif.). […] Statistical Analysis. Body weight, tumor weight, PCNA-positive cells, mean vessel density (CD31/PECAM-1), and TUNEL-positive cells are compared using the Mann-Whitney U test. Survival analysis is computed by the Kaplan-Meier method and compared by the Log rank test.

[10] = system: Endothelial cells; assay: Mean vessel density (CD31/PECAM-1) in L3.6pl tumors; assay type: in vivo, nude mice; conditions: Median ± S.D., microvessels in 10 random 0.159-mm^2 fields at ×100
Description: as §2, with “9:6534-44). Control samples exposed to a secondary antibody alone show no specific staining.” for “9:6534-44).”

[11] = system: tumor-associated endothelial cells; assay: CD31/TUNEL fluorescent double labeling, apoptosis of tumor-associated endothelial cells; assay type: in vivo, nude mice; conditions: Median ± S.D.; ratio of apoptotic endothelial cells to total endothelial cells
Description: Double Immunofluorescence Staining for CD31/PECAM-1 and EGFR, pEGFR, VEGFR, pVEGFR, PDGFRβ, pPDGFRβ, Pericytes (desmin-positive cells), and TUNEL. Frozen sections of pancreatic tumors are mounted on slides and fixed. Immunofluorescence for CD31 is performed using Alexa594 conjugated secondary antibody, and samples are again blocked briefly in a blocking solution (5% normal horse serum and 1% normal goat serum in PBS) as described above and incubated with antibody against human EGFR, pEGFR, VEGFR, pVEGFR, PDGFRβ, pPDGFRβ, or desmin at 4° C. overnight. After washes and blocking with blocking solution, samples are incubated with Alexa488 conjugated secondary antibody. Endothelial cells are identified by red fluorescence, and EGF-R, pEGFR, VEGFR, pVEGFR, PDGFRβ, pPDGFRβ and desmin positive cells (pericytes) are identified by green fluorescence. The presence of growth factor receptors and phosphorylated receptors on endothelial cells are detected by colocalization of red and green fluorescence, which appeared yellow. TUNEL-positive apoptotic cells are detected by localized green fluorescence within cell nuclei, and endothelial cells are identified by red fluorescence. Apoptotic endothelial cells are identified by yellow fluorescence within the nuclei.

[12] = system: PDGFRβ; assay: IHC analysis of phosphorylated PDGFRβ in L3.6pl pancreatic tumors; assay type: in vivo, human; conditions: IHC of pancreatic tumors from treated mice
Text: as §1

[13] = target: T4, PDGFRβ (Mus musculus, UniProt P05622); assay: Double immunofluorescence CD31/pPDGFRβ on tumor-associated endothelial cells; assay type: in vivo, nude mice; conditions: double immunofluorescence with CD31
T4 construct: Frozen sections of pancreatic tumors are mounted on slides and fixed; from tissue; host or cells: tumour-associated endothelial cells in L3.6pl tumours of nude mice

[14] = system: tumor-associated endothelial cells; assay: Pericyte (desmin) coverage on tumor-associated endothelial cells; assay type: in vivo, nude mice; conditions: desmin-positive cells in contact with CD31-positive cells
Description: Double Immunofluorescence Staining for CD31/PECAM-1 and EGFR, pEGFR, VEGFR, pVEGFR, PDGFRβ, pPDGFRβ, Pericytes (desmin-positive cells), and TUNEL. Frozen sections of pancreatic tumors are mounted on slides and fixed. Immunofluorescence for CD31 is performed using Alexa594 conjugated secondary antibody, and samples are again blocked briefly in a blocking solution (5% normal horse serum and 1% normal goat serum in PBS) as described above and incubated with antibody against human EGFR, pEGFR, VEGFR, pVEGFR, PDGFRβ, pPDGFRβ, or desmin at 4° C. overnight. After washes and blocking with blocking solution, samples are incubated with Alexa488 conjugated secondary antibody. Endothelial cells are identified by red fluorescence, and EGF-R, pEGFR, VEGFR, pVEGFR, PDGFRβ, pPDGFRβ and desmin positive cells (pericytes) are identified by green fluorescence. The presence of growth factor receptors and phosphorylated receptors on endothelial cells are detected by colocalization of red and green fluorescence, which appeared yellow. The coverage of pericytes on endothelial cells is determined by counting CD31 positive cells in direct contact with desmin-positive cells and CD31-positive cells without direct association with desmin-positive cells in five randomly selected microscopic fields.

[15] = listed as {6-[4-(4-ethyl-piperazin-1-ylmethyl)-phenyl]-7H-pyrrolo[2,3-d]pyrimidin-4-yl}-(1)

T1 sequence (P00533 25-1210): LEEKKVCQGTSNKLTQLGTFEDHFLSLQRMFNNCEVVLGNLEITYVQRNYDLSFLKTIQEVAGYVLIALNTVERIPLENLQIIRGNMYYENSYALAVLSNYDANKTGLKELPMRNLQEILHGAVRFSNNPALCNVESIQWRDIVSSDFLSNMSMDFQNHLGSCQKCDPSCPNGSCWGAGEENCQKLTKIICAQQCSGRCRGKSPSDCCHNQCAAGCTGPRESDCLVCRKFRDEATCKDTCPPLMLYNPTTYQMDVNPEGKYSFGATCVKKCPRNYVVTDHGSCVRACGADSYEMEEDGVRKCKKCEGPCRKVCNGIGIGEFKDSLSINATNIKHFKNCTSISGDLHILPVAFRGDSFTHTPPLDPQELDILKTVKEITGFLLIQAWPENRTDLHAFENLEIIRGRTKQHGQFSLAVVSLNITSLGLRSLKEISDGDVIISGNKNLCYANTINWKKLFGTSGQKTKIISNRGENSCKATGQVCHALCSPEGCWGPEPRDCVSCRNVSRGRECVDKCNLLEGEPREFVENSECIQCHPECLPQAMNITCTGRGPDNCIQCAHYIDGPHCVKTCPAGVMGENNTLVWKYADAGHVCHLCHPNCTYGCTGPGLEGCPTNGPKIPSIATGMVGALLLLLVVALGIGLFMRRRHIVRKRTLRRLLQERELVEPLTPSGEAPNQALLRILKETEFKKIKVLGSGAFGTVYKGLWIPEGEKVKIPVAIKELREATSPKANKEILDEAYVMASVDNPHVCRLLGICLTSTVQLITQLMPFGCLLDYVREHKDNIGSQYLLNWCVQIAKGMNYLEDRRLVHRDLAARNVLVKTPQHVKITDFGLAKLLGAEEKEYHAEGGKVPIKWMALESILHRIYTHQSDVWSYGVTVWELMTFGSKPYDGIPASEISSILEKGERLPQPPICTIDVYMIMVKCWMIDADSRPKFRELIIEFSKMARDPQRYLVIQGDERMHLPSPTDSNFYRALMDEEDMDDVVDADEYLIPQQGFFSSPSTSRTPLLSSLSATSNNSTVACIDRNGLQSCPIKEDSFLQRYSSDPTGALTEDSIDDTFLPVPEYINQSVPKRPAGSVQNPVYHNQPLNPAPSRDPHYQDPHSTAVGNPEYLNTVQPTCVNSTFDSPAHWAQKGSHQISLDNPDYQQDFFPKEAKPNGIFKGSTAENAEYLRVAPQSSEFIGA
T4 sequence (P05622 32-1098): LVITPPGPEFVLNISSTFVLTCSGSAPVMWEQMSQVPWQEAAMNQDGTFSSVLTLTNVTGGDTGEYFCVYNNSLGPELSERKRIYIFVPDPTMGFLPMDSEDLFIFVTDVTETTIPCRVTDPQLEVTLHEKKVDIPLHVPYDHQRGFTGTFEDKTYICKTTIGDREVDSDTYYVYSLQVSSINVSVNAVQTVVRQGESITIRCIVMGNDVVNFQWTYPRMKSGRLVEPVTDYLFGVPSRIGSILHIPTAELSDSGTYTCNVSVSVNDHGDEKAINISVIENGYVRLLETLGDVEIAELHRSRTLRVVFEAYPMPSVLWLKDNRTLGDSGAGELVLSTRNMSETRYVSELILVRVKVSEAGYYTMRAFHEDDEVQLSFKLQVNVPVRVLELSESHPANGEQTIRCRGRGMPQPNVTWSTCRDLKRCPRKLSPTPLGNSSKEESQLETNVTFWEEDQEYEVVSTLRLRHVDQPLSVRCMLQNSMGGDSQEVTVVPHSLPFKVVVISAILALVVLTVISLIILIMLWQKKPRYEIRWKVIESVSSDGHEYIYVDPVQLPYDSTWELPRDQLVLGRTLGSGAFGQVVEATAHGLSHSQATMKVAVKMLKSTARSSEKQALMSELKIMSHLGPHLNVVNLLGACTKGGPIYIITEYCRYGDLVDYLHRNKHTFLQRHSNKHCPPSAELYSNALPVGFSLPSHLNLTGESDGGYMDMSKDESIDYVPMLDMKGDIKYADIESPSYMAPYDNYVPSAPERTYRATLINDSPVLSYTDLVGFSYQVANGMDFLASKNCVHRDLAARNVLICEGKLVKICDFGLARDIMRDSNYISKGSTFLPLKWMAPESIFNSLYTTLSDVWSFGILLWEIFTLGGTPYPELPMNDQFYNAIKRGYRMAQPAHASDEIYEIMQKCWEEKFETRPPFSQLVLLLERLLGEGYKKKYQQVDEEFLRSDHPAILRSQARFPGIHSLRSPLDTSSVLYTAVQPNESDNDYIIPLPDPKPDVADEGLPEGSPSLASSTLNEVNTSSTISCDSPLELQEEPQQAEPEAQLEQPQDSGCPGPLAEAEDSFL
T3 sequence (P35918 20-1345): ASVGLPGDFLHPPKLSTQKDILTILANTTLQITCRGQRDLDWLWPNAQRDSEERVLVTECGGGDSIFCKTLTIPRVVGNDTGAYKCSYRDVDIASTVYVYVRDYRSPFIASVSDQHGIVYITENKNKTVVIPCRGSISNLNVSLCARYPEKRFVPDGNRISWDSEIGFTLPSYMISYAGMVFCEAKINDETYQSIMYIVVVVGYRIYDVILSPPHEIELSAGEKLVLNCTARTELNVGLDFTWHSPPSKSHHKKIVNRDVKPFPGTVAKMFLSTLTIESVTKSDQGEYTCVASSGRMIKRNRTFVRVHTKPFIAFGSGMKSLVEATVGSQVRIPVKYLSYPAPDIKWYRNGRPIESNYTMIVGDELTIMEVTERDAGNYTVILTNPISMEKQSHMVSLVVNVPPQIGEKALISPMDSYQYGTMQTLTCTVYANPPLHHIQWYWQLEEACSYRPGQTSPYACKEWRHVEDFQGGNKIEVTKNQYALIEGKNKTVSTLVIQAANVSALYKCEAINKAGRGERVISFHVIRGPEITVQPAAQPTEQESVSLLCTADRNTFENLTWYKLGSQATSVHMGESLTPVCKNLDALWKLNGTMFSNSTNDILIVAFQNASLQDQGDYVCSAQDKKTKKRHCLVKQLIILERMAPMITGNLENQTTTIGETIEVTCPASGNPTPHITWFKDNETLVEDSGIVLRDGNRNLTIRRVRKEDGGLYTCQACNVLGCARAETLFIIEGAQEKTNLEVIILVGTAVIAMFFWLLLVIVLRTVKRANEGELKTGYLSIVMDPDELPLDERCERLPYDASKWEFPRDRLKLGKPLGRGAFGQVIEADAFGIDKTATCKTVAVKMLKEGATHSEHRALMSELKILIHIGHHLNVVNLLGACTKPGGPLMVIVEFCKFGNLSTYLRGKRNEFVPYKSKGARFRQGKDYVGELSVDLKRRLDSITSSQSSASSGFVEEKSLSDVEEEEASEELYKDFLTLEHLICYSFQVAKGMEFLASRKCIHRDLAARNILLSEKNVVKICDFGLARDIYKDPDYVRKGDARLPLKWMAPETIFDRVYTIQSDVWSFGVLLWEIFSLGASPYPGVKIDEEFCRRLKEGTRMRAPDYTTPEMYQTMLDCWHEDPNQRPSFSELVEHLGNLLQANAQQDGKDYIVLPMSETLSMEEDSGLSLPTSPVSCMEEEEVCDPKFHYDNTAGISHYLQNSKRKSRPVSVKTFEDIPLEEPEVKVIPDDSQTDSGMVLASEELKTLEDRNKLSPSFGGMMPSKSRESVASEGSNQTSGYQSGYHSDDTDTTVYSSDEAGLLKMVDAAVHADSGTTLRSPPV
T2 sequence (Q01279 25-1210): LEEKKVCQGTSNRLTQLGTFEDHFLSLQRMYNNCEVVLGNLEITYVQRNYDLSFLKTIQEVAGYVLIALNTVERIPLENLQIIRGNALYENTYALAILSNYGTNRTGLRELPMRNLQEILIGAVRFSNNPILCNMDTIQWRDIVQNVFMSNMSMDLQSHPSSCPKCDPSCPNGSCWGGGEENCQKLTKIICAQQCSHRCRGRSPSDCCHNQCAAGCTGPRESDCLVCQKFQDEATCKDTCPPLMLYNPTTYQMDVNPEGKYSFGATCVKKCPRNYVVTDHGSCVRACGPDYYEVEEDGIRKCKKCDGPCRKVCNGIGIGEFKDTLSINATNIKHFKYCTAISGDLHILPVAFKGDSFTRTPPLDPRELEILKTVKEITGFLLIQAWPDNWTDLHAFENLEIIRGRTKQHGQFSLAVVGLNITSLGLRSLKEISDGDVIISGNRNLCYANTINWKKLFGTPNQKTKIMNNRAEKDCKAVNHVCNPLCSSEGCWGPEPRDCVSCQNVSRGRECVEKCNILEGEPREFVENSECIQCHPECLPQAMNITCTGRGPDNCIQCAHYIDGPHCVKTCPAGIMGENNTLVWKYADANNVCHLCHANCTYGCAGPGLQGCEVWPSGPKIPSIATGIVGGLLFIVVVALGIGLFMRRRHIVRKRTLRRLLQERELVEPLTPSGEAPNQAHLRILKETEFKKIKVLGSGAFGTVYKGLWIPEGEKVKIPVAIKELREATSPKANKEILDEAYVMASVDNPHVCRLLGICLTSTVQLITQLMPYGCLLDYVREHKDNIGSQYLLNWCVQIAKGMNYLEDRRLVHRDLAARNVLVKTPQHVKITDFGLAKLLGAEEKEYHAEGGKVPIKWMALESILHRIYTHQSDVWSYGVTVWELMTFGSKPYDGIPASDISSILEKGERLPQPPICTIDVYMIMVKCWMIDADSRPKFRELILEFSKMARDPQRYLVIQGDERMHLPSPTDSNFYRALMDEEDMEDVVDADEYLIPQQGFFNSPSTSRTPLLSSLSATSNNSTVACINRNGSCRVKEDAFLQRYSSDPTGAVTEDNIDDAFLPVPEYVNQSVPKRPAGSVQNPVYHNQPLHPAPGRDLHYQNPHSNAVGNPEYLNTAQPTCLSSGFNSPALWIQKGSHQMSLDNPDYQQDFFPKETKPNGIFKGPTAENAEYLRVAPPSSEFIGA

Compound	Tumor weight (g) Median [1]	Body weight(g) Median [2]	phosphorylation of EGFR in tumors [3]	phosphorylation of EGFR in tumors [3, 15]	phosphorylation of VEGFR in tumors [4]	phosphorylation of VEGFR in tumors [4, 15]	phosphorylation of EGFR on tumor-associated endothelial cells [5]	phosphorylation of VEGFR on tumor-associated endothelial cells [6]	expression level of EGF, VEGF, PDGF-BB, EGFR, VEGFR, and PDGFR by the tumor cells or in the stroma cells [7]	Tumor cells PCNA (number of PCNA-positive cells) [8]	Tumor cells TUNEL (number of apoptotic tumor cells) [9]	Endothelial cells CD31 (mean vessel density) [10]	Endothelial cells TUNEL+ (%) [11]	effect on tumor growth (in words) [1]	Tumor cells PCNA (number of PCNA-positive cells) ([8]; listed as gemcitabine)	Endothelial cells CD31 (mean vessel density) ([10]; listed as gemcitabine)	phosphorylation of PDGFRβ in tumors [12]	phosphorylation of PDGFRβ on tumor-associated endothelial cells [13]	pericyte coverage on tumor-associated endothelial cells [14]
CCN1CCN(Cc2ccc(-c3cc4c(N[C@H](C)c5ccccc5)ncnc4[nH]3)cc2)CC1 [AEE788]	0.33 g	26.2 g	significantly reduced	decreases phosphorylation	significantly reduced	decreases phosphorylation	diminished	diminished	do not alter the expression level	233 ± 54^e	14 ± 4^f	25 ± 5^d	3 ± 3^e %	–	–	–	–	–	–
Nc1ccn([C@@H]2O[C@H](CO)[C@@H](O)C2(F)F)c(=O)n1 [Gemcitabine]	0.78 g	25.7 g	–	–	–	–	–	–	do not alter the expression level	305 ± 71	8 ± 3^f	38 ± 7	1 ± 1%	does not inhibit tumor growth	decreases the number of dividing PCNA-positive cells	does not decrease MVD	–	–	–
Cc1ccc(NC(=O)c2ccc(CN3CCN(C)CC3)cc2)cc1Nc1nccc(-c2cccnc2)n1 [STI571, N-{5-[4-(4-methyl-piperazino-methyl)-benzoylamido]-2-methylphenyl}-4-(3-pyridyl)-2-pyrimidine-amine]	0.96 g	–	–	–	–	–	–	–	do not alter the expression level	–	6 ± 2	–	0 ± 0%	does not inhibit tumor growth	–	–	inhibited	decreased	decreases pericyte coverage
